{"source": "ChEMBL document CHEMBL1201862", "about": "“PubChem BioAssay data set” (2004)", "key": {"[1]": {"target": "T1, RNA-binding protein pos-1 (Caenorhabditis elegans, UniProt G5EF15)", "T1 sequence (G5EF15 whole entry)": "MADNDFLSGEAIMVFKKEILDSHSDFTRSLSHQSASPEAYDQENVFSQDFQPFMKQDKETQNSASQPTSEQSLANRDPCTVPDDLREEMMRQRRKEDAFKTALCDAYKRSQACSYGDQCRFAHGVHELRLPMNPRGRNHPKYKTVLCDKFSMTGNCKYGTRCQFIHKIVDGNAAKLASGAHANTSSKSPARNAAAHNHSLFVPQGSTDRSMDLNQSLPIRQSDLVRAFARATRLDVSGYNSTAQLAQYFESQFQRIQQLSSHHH", "assay": "disruptors of C. elegans POS-1 RNA interaction – biochemical, fluorescence polarization, dose response (AID 1964);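 also: purified POS-1 fused to maltose binding protein made in E. coli; potency of compounds blocking POS-1 binding to fluorescent RNA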"}, "[2]": {"target": "T2, Zinc finger protein mex-5 (Caenorhabditis elegans, UniProt Q9XUB2)", "T2 sequence (Q9XUB2 whole entry)": "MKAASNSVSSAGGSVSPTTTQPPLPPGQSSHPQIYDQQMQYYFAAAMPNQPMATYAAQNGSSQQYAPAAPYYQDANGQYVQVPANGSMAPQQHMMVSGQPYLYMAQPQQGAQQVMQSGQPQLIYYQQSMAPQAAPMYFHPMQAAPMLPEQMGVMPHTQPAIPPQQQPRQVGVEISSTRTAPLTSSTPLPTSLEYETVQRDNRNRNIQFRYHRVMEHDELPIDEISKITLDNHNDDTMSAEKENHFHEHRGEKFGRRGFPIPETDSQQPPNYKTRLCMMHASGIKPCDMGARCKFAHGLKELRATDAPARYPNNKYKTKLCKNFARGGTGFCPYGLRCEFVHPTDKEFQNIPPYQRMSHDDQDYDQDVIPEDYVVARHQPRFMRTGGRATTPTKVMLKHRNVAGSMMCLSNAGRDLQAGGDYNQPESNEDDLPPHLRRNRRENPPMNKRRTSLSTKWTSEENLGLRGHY", "assay": "potency of MEX-5 RNA-binding blockers – biochemical, C. elegans, fluorescence polarization, dose response (AID 1960)"}, "[3]": {"target": "Peroxisome proliferator-activated receptor gamma (Homo sapiens, UniProt P37231)", "sequence (P37231 whole entry)": "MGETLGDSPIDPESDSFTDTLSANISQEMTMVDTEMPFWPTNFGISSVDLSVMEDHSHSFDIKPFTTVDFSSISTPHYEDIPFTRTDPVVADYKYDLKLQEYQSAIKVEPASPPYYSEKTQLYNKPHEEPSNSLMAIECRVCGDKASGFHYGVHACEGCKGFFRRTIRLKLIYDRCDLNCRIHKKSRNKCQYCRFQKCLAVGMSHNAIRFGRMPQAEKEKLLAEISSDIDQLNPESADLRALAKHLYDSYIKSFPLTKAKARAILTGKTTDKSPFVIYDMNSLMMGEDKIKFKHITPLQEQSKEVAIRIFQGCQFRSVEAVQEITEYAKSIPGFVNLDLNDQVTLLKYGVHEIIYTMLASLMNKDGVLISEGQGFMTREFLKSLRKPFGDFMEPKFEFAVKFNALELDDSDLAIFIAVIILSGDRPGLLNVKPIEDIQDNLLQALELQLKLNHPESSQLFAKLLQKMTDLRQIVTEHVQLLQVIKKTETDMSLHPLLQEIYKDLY", "assay": "PPARg transcriptional activation, reporter cells – cell-based, luminescence, assay provider, dose response (AID 504447)", "format": "functional"}, "[4]": {"target": "T3, Corticotropin-releasing factor receptor 2/Corticotropin-releasing factor-binding protein (Homo sapiens, UniProt P24387+Q13324)", "T3 sequence (Q13324 whole entry)": "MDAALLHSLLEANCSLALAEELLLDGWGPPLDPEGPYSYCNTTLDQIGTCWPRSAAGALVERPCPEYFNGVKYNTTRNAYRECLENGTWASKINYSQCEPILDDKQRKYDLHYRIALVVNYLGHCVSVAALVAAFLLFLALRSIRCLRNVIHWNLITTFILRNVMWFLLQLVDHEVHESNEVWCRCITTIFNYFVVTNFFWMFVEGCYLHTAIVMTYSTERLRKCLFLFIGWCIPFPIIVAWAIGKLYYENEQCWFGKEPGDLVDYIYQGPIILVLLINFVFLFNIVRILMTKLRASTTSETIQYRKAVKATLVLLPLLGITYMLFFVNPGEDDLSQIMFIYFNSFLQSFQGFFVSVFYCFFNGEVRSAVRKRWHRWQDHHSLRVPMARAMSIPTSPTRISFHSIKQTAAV", "T3 sequence (P24387 whole entry)": "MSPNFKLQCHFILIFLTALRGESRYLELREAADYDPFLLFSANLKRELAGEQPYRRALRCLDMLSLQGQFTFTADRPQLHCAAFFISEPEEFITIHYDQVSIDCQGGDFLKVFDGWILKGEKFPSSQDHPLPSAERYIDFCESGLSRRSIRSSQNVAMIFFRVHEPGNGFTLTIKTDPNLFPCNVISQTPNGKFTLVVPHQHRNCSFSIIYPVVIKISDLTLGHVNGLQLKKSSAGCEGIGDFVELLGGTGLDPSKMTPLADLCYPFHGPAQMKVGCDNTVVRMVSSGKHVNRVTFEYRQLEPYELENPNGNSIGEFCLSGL", "assay": "activators of CRF receptor 2 with binding protein – uHTS hits, confirmation (AID 602473)", "format": "functional", "settings": "read-out: EC50_Mean"}, "[5]": {"target": "Alkaline phosphatase, placental type (Homo sapiens, UniProt P05187)", "sequence (P05187 whole entry)": "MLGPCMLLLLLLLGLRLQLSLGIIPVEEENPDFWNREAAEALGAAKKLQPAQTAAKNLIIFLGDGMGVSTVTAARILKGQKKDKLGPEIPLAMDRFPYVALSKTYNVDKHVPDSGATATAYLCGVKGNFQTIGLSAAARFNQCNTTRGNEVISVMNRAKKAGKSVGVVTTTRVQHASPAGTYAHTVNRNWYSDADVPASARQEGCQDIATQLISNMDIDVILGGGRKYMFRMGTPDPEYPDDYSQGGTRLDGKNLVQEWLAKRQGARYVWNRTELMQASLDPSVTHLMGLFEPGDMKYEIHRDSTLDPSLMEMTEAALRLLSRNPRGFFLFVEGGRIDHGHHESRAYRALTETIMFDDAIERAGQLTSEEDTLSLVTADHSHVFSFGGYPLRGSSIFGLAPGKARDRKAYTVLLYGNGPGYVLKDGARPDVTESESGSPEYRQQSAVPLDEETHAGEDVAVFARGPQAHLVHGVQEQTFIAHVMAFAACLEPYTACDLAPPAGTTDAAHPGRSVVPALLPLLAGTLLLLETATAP", "assay": "human placental alkaline phosphatase inhibition – biochemical, luminescence, confirmation (AID 1512)", "format": "functional"}, "[6]": {"target": "T4, Tyrosine-protein phosphatase non-receptor type 7 (Homo sapiens, UniProt P35236)", "T4 sequence (P35236 whole entry)": "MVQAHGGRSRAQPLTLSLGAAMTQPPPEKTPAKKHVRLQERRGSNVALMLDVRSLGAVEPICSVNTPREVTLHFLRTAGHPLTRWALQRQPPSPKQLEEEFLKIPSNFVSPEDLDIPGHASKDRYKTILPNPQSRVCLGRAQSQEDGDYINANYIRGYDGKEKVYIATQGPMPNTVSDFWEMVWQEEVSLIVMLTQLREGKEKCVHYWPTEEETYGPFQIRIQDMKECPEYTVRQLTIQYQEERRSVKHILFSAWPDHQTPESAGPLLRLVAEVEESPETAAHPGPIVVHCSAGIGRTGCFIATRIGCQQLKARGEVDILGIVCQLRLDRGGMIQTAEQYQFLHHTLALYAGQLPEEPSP", "assay": "SAR analysis of chemical inhibitors of HePTP using a Fluorescent assay - Set 2. [Related pubchem assays (depositor defined):AID1059, AID1077, AID1661, AID2085, AID521]", "format": "functional"}, "[7]": {"target": "Dual specificity protein phosphatase 3 (Homo sapiens, UniProt P51452)", "sequence (P51452 whole entry)": "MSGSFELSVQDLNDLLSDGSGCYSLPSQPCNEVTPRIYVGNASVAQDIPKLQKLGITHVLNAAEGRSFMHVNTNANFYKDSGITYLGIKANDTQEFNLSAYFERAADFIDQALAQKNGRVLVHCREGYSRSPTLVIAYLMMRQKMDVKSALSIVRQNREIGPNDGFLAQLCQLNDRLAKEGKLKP", "assay": "SAR VHR1 Fluorescent Assay for In Vitro dose response studies Set 2. [Related pubchem assays (depositor defined):AID1654, AID1661, AID1878]", "format": "functional"}, "[8]": {"target": "T5, G-protein coupled receptor 55 (Homo sapiens, UniProt Q9Y2T6)", "T5 sequence (Q9Y2T6 whole entry)": "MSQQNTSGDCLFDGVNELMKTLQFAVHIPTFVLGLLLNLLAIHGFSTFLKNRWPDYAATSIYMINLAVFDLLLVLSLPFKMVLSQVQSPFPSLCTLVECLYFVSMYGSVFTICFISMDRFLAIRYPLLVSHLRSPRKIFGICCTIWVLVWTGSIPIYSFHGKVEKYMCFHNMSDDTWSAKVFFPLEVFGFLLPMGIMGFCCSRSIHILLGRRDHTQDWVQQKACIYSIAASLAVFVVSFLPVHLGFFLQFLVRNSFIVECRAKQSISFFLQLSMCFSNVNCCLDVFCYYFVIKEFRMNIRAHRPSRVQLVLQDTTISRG", "assay": "selective activators of receptor GPR55 – imaging, U2OS cells, beta-arrestin-GFP redistribution, primary screen (AID 1961)", "format": "functional"}, "[9]": {"target": "T5, G-protein coupled receptor 55", "assay": "inhibition of LPI-stimulated GPR55 beta-arrestin translocation – imaging, U2OS, beta-arrestin-GFP, LPI agonist, primary screen (AID 2013);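 also: antagonist potency measured as reduced agonist-driven arrestin aggregation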", "format": "functional"}, "[10]": {"target": "Voltage-dependent T-type calcium channel subunit alpha-1H (Homo sapiens, UniProt O95180)", "sequence (O95180 whole entry)": "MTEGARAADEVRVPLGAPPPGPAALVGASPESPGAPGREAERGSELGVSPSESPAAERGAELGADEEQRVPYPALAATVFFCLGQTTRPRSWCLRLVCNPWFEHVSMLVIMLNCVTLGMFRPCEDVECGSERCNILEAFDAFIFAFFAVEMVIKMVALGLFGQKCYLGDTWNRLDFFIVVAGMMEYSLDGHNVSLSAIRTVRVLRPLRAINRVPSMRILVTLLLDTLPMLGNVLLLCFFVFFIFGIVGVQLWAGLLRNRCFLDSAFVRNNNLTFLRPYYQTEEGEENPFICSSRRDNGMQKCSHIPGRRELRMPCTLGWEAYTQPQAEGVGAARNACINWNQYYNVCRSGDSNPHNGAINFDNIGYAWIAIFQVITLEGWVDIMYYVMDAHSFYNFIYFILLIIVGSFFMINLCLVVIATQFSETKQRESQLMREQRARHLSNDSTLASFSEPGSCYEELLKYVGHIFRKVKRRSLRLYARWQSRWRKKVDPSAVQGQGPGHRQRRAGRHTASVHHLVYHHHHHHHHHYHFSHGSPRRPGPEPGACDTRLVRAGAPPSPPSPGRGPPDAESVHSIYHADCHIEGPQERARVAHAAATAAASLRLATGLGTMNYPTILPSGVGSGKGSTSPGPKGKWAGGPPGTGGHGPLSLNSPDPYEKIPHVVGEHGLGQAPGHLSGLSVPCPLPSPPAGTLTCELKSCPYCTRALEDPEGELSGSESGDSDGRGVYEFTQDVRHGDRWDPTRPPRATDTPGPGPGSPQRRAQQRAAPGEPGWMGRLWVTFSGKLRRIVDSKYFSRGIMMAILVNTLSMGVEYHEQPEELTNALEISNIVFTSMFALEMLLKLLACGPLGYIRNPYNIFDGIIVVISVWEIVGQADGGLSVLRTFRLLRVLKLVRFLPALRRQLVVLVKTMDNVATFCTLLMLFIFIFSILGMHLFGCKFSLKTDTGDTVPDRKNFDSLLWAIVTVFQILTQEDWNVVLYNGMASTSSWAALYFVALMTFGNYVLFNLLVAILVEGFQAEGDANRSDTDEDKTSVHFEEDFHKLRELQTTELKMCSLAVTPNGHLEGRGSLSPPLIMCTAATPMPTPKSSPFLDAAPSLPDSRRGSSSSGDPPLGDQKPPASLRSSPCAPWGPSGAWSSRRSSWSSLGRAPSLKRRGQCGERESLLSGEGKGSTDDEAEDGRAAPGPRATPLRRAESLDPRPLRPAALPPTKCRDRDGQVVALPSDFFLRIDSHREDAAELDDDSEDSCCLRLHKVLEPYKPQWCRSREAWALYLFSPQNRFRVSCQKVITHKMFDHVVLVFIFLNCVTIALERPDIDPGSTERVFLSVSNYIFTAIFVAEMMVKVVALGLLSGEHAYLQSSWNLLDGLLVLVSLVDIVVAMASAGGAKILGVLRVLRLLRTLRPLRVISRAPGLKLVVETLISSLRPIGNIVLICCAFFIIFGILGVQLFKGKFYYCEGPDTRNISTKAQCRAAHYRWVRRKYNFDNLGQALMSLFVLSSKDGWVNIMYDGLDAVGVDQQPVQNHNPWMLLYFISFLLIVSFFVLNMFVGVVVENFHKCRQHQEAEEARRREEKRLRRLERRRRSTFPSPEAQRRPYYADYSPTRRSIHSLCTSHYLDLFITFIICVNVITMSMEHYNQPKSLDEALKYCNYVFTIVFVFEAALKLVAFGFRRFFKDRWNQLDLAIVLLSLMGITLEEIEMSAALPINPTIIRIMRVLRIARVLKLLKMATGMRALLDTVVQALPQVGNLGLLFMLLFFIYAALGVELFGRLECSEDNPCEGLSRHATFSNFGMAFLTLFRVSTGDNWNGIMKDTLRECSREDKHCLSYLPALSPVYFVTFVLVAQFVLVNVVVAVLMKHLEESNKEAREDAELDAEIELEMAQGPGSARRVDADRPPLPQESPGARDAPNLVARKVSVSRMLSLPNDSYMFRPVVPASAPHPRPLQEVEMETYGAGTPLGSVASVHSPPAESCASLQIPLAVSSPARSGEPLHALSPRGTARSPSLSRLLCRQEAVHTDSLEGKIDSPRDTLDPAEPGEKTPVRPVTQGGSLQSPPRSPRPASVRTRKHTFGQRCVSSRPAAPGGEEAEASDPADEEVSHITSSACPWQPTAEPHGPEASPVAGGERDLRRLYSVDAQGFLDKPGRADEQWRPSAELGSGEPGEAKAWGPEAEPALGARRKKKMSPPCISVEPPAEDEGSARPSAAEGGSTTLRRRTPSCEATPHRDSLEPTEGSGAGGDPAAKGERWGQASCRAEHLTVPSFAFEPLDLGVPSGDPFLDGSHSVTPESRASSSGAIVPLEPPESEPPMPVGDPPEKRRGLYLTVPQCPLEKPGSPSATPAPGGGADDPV", "format": "functional"}, "SUMO-activating enzyme": {"target": "SUMO-activating enzyme (Homo sapiens, UniProt Q9UBT2)", "sequence (Q9UBE0 whole entry)": "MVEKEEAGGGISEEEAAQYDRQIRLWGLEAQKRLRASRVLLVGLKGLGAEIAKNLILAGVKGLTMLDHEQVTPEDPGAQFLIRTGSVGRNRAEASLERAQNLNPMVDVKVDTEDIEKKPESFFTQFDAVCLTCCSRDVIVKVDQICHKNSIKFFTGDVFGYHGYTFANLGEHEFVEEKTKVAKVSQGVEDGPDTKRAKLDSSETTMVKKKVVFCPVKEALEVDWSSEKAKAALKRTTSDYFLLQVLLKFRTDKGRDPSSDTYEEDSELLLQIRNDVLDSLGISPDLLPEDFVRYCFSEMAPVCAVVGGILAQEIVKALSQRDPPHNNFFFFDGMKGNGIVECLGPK", "sequence (Q9UBT2 whole entry)": "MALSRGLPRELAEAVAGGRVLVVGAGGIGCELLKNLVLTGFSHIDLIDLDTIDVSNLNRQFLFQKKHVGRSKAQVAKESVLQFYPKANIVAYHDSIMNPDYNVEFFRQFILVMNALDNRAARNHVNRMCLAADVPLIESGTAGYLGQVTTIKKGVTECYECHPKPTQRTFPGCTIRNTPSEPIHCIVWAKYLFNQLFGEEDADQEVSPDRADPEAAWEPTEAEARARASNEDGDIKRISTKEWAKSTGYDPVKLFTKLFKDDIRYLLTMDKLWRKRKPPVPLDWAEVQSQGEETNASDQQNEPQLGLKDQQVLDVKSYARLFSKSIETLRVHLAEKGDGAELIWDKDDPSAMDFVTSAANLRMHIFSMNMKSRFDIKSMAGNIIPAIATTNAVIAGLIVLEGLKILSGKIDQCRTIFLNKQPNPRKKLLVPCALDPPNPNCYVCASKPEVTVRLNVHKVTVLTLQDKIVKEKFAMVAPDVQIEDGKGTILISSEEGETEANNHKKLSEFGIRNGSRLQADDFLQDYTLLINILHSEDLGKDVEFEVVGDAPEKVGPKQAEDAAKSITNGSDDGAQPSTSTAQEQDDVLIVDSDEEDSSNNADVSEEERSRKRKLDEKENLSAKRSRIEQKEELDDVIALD", "assay": "blockers of UBC9-mediated SUMO conjugation – biochemical, AlphaScreen, SUMOylation inhibitor project, confirmation (AID 2018)", "format": "functional"}, "Troponin, cardiac muscle": {"target": "Troponin, cardiac muscle (Homo sapiens, UniProt P19429+P45379+P63316)", "assay": "Fluorescence-based biochemical high throughput dose response assay for activators of the calcium sensitivity of cardiac Regulated Thin Filaments (RTF). [Related pubchem assays (depositor defined):AID493008, AID493018, AID504382, AID504383]", "format": "protein-complex assay"}}, "note": "The source made the active and inactive calls.", "data": [{"molecule": "COc1ccccc1N1C(=O)C2C(C(=O)c3ccccc3)=NN(c3ccc(C)cc3)C2C1=O", "note": "(configuration not stated)", "values": [{"measurement": "EC50", "setting": "[1]", "result": "13.7 µM (inconclusive)"}, {"measurement": "EC50", "setting": "[2]", "result": "14.3 µM (active)"}, {"measurement": "EC50", "setting": "[3]", "result": "1.7 µM (active)"}, {"measurement": "EC50", "setting": "[4]", "result": "5.27 µM (active)"}]}, {"molecule": "Cc1ccc(NC(S)=NNC(=O)c2cn(C)nc2C)cc1", "values": [{"measurement": "IC50", "setting": "[5]", "result": "> 100 µM (inactive)"}, {"measurement": "IC50", "setting": "[6]", "result": "> 100 µM (inactive)"}, {"measurement": "IC50", "setting": "[7]", "result": "> 100 µM (inactive)"}]}, {"molecule": "COc1cc2c(cc1NC(=O)CSc1ccc(Cl)cc1)oc1ccccc12", "values": [{"measurement": "EC50", "setting": "[8]", "result": "20.7 µM (inactive)"}]}, {"molecule": "CCN(c1ccccc1)S(=O)(=O)c1ccc(NCC2COc3ccccc3O2)nc1", "note": "(configuration not stated)", "values": [{"measurement": "IC50", "setting": "[9]", "result": "6.56 µM (active)"}, {"measurement": "EC50", "setting": "[10]", "result": "7.97 µM (active)"}]}, {"molecule": "Cn1c2ccccc2c2cnn(CC(=O)Nc3ccc(Cl)cc3)c(=O)c21", "values": [{"measurement": "IC50", "setting": "SUMO-activating enzyme", "result": "46 µM (active)"}]}, {"molecule": "O=C(O)CCC(=O)Nc1cc(C(F)(F)F)cc(C(F)(F)F)c1", "values": [{"measurement": "EC50", "setting": "Troponin, cardiac muscle", "result": "> 71.4 µM (inactive)"}]}]}
